Test results published in the NIST ThermoML archive (doi:10.1021/je200811n).
± gives the expanded uncertainty stated by the source.

Conditions: Hot wire method

F/C=C/C(F)(F)F [trans-1,3,3,3-tetrafluoropropene]
Conditions	thermal conductivity [W/m/K]
322.82 K, 587 kPa, Gas	0.01562 ± 0.00053
322.86 K, 21602 kPa, Liquid	0.08015 ± 0.00088
322.89 K, 858 kPa, Gas	0.01585 ± 0.00053
322.9 K, 15321 kPa, Liquid	0.07653 ± 0.00085
322.91 K, 884 kPa, Gas	0.01588 ± 0.00053
322.91 K, 5442 kPa, Liquid	0.06937 ± 0.00078
322.93 K, 431 kPa, Gas	0.01557 ± 0.00052
322.94 K, 5376 kPa, Liquid	0.06973 ± 0.00078
322.99 K, 96 kPa, Gas	0.01599 ± 0.00054
323 K, 710 kPa, Gas	0.01574 ± 0.00053
323.07 K, 301 kPa, Gas	0.01559 ± 0.00052
323.18 K, 586 kPa, Gas	0.01563 ± 0.00053
323.19 K, 193 kPa, Gas	0.01574 ± 0.00053
323.23 K, 856 kPa, Gas	0.01588 ± 0.00053
323.26 K, 882 kPa, Gas	0.01587 ± 0.00053
323.3 K, 430 kPa, Gas	0.01563 ± 0.00053
323.36 K, 707 kPa, Gas	0.01574 ± 0.00053
323.41 K, 96 kPa, Gas	0.0162 ± 0.00054
323.46 K, 301 kPa, Gas	0.01566 ± 0.00053
323.55 K, 585 kPa, Gas	0.01566 ± 0.00053
323.61 K, 193 kPa, Gas	0.01581 ± 0.00053
323.71 K, 429 kPa, Gas	0.01566 ± 0.00053
323.86 K, 96 kPa, Gas	0.01599 ± 0.00054
323.88 K, 301 kPa, Gas	0.01569 ± 0.00053
324.05 K, 193 kPa, Gas	0.01583 ± 0.00053
324.33 K, 96 kPa, Gas	0.01609 ± 0.00054
331.18 K, 96 kPa, Gas	0.01637 ± 0.00055
331.19 K, 198 kPa, Gas	0.01658 ± 0.00056
331.21 K, 298 kPa, Gas	0.01665 ± 0.00056
331.4 K, 96 kPa, Gas	0.0162 ± 0.0005
331.42 K, 198 kPa, Gas	0.01638 ± 0.00055
331.43 K, 298 kPa, Gas	0.01653 ± 0.00055
331.64 K, 96 kPa, Gas	0.01611 ± 0.00054
331.65 K, 197 kPa, Gas	0.01629 ± 0.00055
331.67 K, 298 kPa, Gas	0.0164 ± 0.0006
331.9 K, 96 kPa, Gas	0.01602 ± 0.00054
331.9 K, 298 kPa, Gas	0.01635 ± 0.00055
331.91 K, 197 kPa, Gas	0.01618 ± 0.00054
332.16 K, 298 kPa, Gas	0.01629 ± 0.00055
332.17 K, 198 kPa, Gas	0.01612 ± 0.00054
332.17 K, 1166 kPa, Gas	0.01695 ± 0.0003
332.18 K, 1084 kPa, Gas	0.01688 ± 0.0003
332.3 K, 442 kPa, Gas	0.01671 ± 0.00056
332.33 K, 813 kPa, Gas	0.0168 ± 0.00056
332.38 K, 585 kPa, Gas	0.01673 ± 0.00056
332.42 K, 298 kPa, Gas	0.01634 ± 0.00055
332.43 K, 600 kPa, Gas	0.0167 ± 0.00056
332.46 K, 434 kPa, Gas	0.01674 ± 0.00056
332.46 K, 1166 kPa, Gas	0.01705 ± 0.00031
332.47 K, 1082 kPa, Gas	0.01688 ± 0.0003
332.52 K, 198 kPa, Gas	0.0166 ± 0.00056
332.63 K, 813 kPa, Gas	0.01684 ± 0.00056
332.65 K, 442 kPa, Gas	0.01674 ± 0.00056
332.7 K, 96 kPa, Gas	0.01695 ± 0.00057
332.71 K, 584 kPa, Gas	0.0167 ± 0.00056
332.75 K, 598 kPa, Gas	0.01664 ± 0.00056
332.76 K, 1166 kPa, Gas	0.01708 ± 0.00031
332.79 K, 1079 kPa, Gas	0.01686 ± 0.0003
332.8 K, 434 kPa, Gas	0.01674 ± 0.00056
332.9 K, 198 kPa, Gas	0.01664 ± 0.00056
332.91 K, 871 kPa, Gas	0.01664 ± 0.00056
332.97 K, 813 kPa, Gas	0.01681 ± 0.00056
333.01 K, 444 kPa, Gas	0.01648 ± 0.00055
333.08 K, 1166 kPa, Gas	0.01705 ± 0.00031
333.11 K, 1077 kPa, Gas	0.0169 ± 0.0003
333.13 K, 96 kPa, Gas	0.017 ± 0.00057
333.26 K, 868 kPa, Gas	0.01661 ± 0.00056
333.31 K, 198 kPa, Gas	0.01672 ± 0.00056
333.42 K, 1165 kPa, Gas	0.01702 ± 0.0003
333.46 K, 1075 kPa, Gas	0.01692 ± 0.0003
333.56 K, 96 kPa, Gas	0.01706 ± 0.00057
333.6 K, 298 kPa, Gas	0.01659 ± 0.00056
333.74 K, 197 kPa, Gas	0.01673 ± 0.00056
333.82 K, 441 kPa, Gas	0.01653 ± 0.00055
333.98 K, 435 kPa, Gas	0.01662 ± 0.00056
334.02 K, 96 kPa, Gas	0.01704 ± 0.00057
334.02 K, 298 kPa, Gas	0.01661 ± 0.00056
334.19 K, 197 kPa, Gas	0.01672 ± 0.00056
334.51 K, 96 kPa, Gas	0.01712 ± 0.00057
340.58 K, 3036 kPa, Liquid	0.06257 ± 0.0007
340.6 K, 1565 kPa, Liquid	0.06077 ± 0.00069
340.63 K, 3034 kPa, Liquid	0.06242 ± 0.0007
340.65 K, 1563 kPa, Liquid	0.06068 ± 0.00068
340.7 K, 96 kPa, Gas	0.01742 ± 0.00058
340.73 K, 194 kPa, Gas	0.01765 ± 0.00059
340.73 K, 5177 kPa, Liquid	0.06477 ± 0.00073
340.75 K, 8139 kPa, Liquid	0.06735 ± 0.00075
340.75 K, 8199 kPa, Liquid	0.06725 ± 0.00075
340.78 K, 5176 kPa, Liquid	0.06447 ± 0.00072
340.8 K, 8202 kPa, Liquid	0.06713 ± 0.00075
340.82 K, 3032 kPa, Liquid	0.06247 ± 0.00071
340.86 K, 1561 kPa, Liquid	0.06064 ± 0.00069
340.88 K, 3031 kPa, Liquid	0.06222 ± 0.0007
340.92 K, 97 kPa, Gas	0.01718 ± 0.00057
340.92 K, 1560 kPa, Liquid	0.06043 ± 0.00068
340.94 K, 194 kPa, Gas	0.0174 ± 0.0006
341.03 K, 8138 kPa, Liquid	0.06739 ± 0.00075
341.04 K, 20095 kPa, Liquid	0.07528 ± 0.00083
341.06 K, 16393 kPa, Liquid	0.07294 ± 0.00081
341.07 K, 5175 kPa, Liquid	0.06447 ± 0.00073
341.08 K, 8204 kPa, Liquid	0.06709 ± 0.00076
341.09 K, 3029 kPa, Liquid	0.06217 ± 0.0007
341.09 K, 21968 kPa, Liquid	0.07668 ± 0.00085
341.1 K, 8133 kPa, Liquid	0.06713 ± 0.00075
341.1 K, 12136 kPa, Liquid	0.07037 ± 0.00078
341.1 K, 20086 kPa, Liquid	0.07523 ± 0.00083
341.12 K, 16392 kPa, Liquid	0.07302 ± 0.00081
341.13 K, 1563 kPa, Liquid	0.06043 ± 0.00068
341.14 K, 96 kPa, Gas	0.01698 ± 0.00057
341.15 K, 5174 kPa, Liquid	0.06431 ± 0.00072
341.15 K, 21974 kPa, Liquid	0.07662 ± 0.00085
341.16 K, 194 kPa, Gas	0.01722 ± 0.00058

Liquid
Conditions	thermal conductivity [W/m/K]
323.15 K	0.06606 ± 0.00047
333.15 K	0.06293 ± 0.00045
